The text below walks through data of publication PMC7024556 (Molecules, 2020).

pIC50: −log10 of the molar value.

One may read the pIC50 as −log10 of the IC50, conventionally taken in molar units.

The test system of data set [1] is Capan-1 cells (BRCA2-deficient). In words: Cell proliferation assay (CellTiter-Glo), Capan-1. It is filed as cell-based. The following applies: for pIC50: Homo sapiens, CAPAN-1, light or radiation study, 10 days incubation. How it is done: (§1) To assess the cytotoxicity of test compounds on BRCA-deficient cells using a CellTiter-Glo assay. MX-1 cells (BRCA1-deficient) and Capan-1 cells (BRCA2-deficient) were seeded in 96-well plates at densities that allowed linear growth for 10 days, and adhered overnight at 37 °C in a humidified atmosphere of 5% CO2. Cells were treated in their recommended growth medium containing varying concentrations of test compounds. […] After 10 days of incubation, CellTiter-Glo Reagent (Promega, Madison, WI, USA) was added to the plates, which continued to be incubated for 30 min at room temperature. Chemiluminescence values were recorded by a multiplate reader, and IC50 values were calculated using GraphPad Prism 8.0 software.
On the technique in general: Cellular ATP, detected with luciferase, serves as a proxy for viable cell number.

Data set [2] concerns MX-1 cells (BRCA1-deficient). In words: Cell proliferation assay (CellTiter-Glo), MX-1. The following applies: for pIC50: Homo sapiens, MX1, light or radiation study, 10 days incubation. Type of data set: cell-based. As to the method:
as §1

Data set [3] deals with poly (ADP-ribose) (PAR) polymerization in HeLa cells. In words: Cellular PARylation assay (H2O2-induced PAR polymerization). Type of data set: cell-based. The following applies: for pIC50: Homo sapiens, 18 h compound, 500 μM H2O2, read-out: Inhibit Polymerization of PAR IC50. As to the method:
The cellular PARylation assay evaluated the ability of test compounds to inhibit polymerization of PAR. Hela cells were seeded in 96-well plates (10,000 cells/well) in 200 μL of cell complete medium, and were allowed to adhere for 4 h at 37 °C in a humidified atmosphere of 5% CO2. The medium was then removed from the plates, and the cells were treated with varying concentrations of test compounds for 18 h. 100 μL serum-free medium with 500 μM H2O2 solution was added, and the plate was kept at 37 °C for 5 min. Next, cells were fixed for 20 min with prechilled methanol at −20 °C and were incubated with 60 μL Poly(ADP-ribose) monoclonal antibody (1:2000) (prepared at 1x PBS containing 0.05% Tween-20 with 1% bovine serum albumin) at 37 °C for 2 h, followed by incubation with 60 μL IRDye 800CW goat anti-mouse IgG (diluted to 1:5000) and DNA stain DRAQ5 (1:5000) (prepared at 1× PBS containing 0.05% Tween-20 with 1% bovine serum albumin) at 37 °C for 2 h. The fluorescent signal was normalized with the DRAQ5 signal, and IC50 values were calculated using GraphPad Prism 8.0 software.

The nature of data set [4]: Talazoparib UV stability assay (HPLC). It is filed as physicochemical. Conditions: 2.63 mM in methanol, 365 nm, up to 10 min. As to the method:
The irradiation times were 1 min, 2 min, 3 min, 4 min, 5 min, and 10 min. The irradiated solution was transferred to a volumetric flask and diluted to the same volume with methanol. Then HPLC analysis was performed to detect the compound peak area. […] California, CA, USA) using a mobile phase A (water) and mobile phase B (acetonitrile (ACN)) to elute. The gradient changed from 70% A to 30% A in 10 min, then continuing to elute with 30% A for 5 min. The flow rate was 1 mL/min, and the detection wavelength was 220 nm.

Another data set deals with PARP. The following applies: PARP inhibitor potency; cited from earlier work.
The target of a further data set is T1, PARP-1 enzyme (Homo sapiens, UniProt P09874).
T1 construct: purchased BPS 80569
In words: PARP-1 enzyme inhibition assay (PARP-1 Chemiluminescent Assay Kit). Type of data set: biochemical. How it is done:
A PARP-1 Chemiluminescent Assay Kit (Cat# 80569, BPS, San Diego, CA, USA) was used to detect the ability of compounds to inhibit PARP-1 enzyme activity. All experimental steps followed the operating manual. Firstly, each well was precoated with 25 μL 1× histone mixture that was diluted in PBS by incubation at 4 °C overnight. The wells were blocked by adding 100 μL of blocking buffer, then incubated at room temperature for 90 min. Then 12.5 μL of the prepared 1× PARP assay mixture and 1× activated DNA in 1× PARP buffer were added into each well of the assay plate, and 2.5 μL of compound or solvent control were added at varying concentrations. The reaction was initiated by the addition of 10 μL 1 ng/μL PARP-1 enzyme in 1× PARP buffer at room temperature for 60 min. Next, the reaction solution was added with 25 μL of diluted Streptavidin-HRP (1:50 in blocking buffer) to each well at room temperature for an additional 30 min. Finally, 25 μL of Horseradish Peroxidase (HRP) chemiluminescent substrate A and 25 μL of HRP chemiluminescent substrate B were mixed on ice, and the mixture was added by 50 μL per well. The luminescent signal was measured using a multi-function microplate reader, and IC50 values were calculated using GraphPad Prism 8.0 software.

Data set [5] in a line: Phosphate-buffered saline stability of the photoactivatable prodrug (HPLC). Type of data set: physicochemical. The following applies: 20 μM, pH = 7.4 PBS with 10% DMSO, 37 °C, 48 h. As to the method: Twenty μM of the test compound in pH = 7.4 PBS, containing 10% DMSO, were transferred to 13 1 mL volumetric flasks in equal volumes, incubated at 37 °C. The volumetric flasks were taken out at 0 min, 5 min, 10 min, 15 min, 30 min, 1 h, 2 h, 4 h, 8 h, 12 h, 24 h, 48 h, and 7 days, and were frozen at −80 °C. The samples were thawed in sequence and diluted to the same volume with methanol. Then HPLC analysis was performed to detect the compound peak area. Samples were determined on an Agilent Eclipse Plus C18 column (4.6 × 150 mm, 5 μm particle size; California, CA, USA) using a mobile phase A (water) and mobile phase B (ACN) to elute. The gradient changed from 70% A to 30% A in 10 min, continuing to elute with 30% A for 5 min. The flow rate was 1 mL/min, and the detection wavelength was 220 nm.

The nature of data set [6]: UV cleavage test in methanol (HPLC). Type of data set: physicochemical. The following applies: 20 μM in methanol, 365 nm UV. As to the method:
The compound was dissolved in methanol (20 μM), and the solution were irradiated at 365 nm by using an UV crosslinker. Every minute from 0 to 10 min, aliquot samples (200 μL) were determined on an Agilent Eclipse Plus C18 column (4.6 × 150 mm, 5 μm particle size) using mobile phase A (water) and mobile phase B (ACN) to elute. The gradient changed from 70% A to 30% A in 10 min, continuing to elute with 30% A for 5 min. The flow rate was 1 mL/min and the detection wavelength was 220 nm. The peak areas percentage of the compounds at each time point were plotted against the sampling time.

A short description of data set [7]: UV cleavage test in culture medium DMEM in 96-well plate (HPLC). Conditions: 10 μM in DMEM, 365 nm, 3 min. It is filed as physicochemical. How it is done:
Therefore, we tested the Capan-1 cells that could tolerate a longer UV irradiation duration. […] We simulated the same cytotoxicity experimental conditions to evaluate the photolysis of 10 μΜ compound 3 (10 μM is the starting concentration of compound 3 in cytotoxicity experiments) in a 96-well plate.
Supplementary Materials: Design, Synthesis and In Vitro Evaluation of the […]
Jiaguo Li 1, 2, Dian Xiao 2, Lianqi Liu 2, Fei Xie 2, Wei Li 2, Wei Sun 1,*, Xiaohong Yang 1,*, and Xinbo Zhou 2,* […]
wavelength scanning; (B) Local UV/Vis absorption spectra with a wavelength range of 290-500 nm. Compound […]
Introduction of the PPG into the parent compound's molecular structure leads to increased light absorption around 365 nm. Wavelengths shorter than 300 nm is highly energetic and can easily damage tissues and cells. Therefore, 365 nm was considered as the optimal wavelength for deprotection.
Figure S2. UV-cleavage test on the Compound 3 in culture medium DMEM. Compound 3 were dissolved in DMEM medium containing 0.1 %DMSO and added to 96-well plates at a final concentration of 10 μM. After being irradiated for 1 min and 3 min at 365 nm respectively, the samples were analyzed by HPLC. The peak area is plotted against the irradiation time. […]

Setting [8] is: UV+, compound irradiated 20 min at 365 nm before addition to cells.

T1 sequence (P09874 whole entry): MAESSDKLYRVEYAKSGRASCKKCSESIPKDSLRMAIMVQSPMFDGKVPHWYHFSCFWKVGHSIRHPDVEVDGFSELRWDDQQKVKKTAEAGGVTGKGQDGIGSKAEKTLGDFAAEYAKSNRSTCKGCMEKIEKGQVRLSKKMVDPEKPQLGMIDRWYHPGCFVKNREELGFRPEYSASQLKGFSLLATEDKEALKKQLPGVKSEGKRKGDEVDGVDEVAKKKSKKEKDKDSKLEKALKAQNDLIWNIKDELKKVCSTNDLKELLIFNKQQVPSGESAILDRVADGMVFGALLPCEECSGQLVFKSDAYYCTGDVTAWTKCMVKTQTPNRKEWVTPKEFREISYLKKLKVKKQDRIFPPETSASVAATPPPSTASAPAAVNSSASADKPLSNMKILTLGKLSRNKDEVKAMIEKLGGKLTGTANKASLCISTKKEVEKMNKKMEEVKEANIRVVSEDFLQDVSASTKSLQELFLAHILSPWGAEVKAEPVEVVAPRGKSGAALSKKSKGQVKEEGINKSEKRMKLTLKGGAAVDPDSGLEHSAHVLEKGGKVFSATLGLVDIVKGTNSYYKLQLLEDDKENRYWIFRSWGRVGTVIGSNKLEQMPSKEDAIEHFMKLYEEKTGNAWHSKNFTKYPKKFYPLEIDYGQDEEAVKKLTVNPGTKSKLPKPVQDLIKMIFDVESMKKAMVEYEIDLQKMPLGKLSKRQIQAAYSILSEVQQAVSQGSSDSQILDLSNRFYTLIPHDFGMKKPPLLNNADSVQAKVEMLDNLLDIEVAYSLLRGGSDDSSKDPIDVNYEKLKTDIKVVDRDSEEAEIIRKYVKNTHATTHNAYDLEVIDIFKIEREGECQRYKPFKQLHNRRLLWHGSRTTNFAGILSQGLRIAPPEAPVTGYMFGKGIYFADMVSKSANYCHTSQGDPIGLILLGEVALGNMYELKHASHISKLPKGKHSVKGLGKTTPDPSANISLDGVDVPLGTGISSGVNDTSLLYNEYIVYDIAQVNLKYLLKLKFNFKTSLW

As for `Cn1ncnc1[C@H]1c2n[nH]c(=O)c3cc(F)cc(c23)N[C@@H]1c1ccc(F)cc1` [Talazoparib, reference compound], the pIC50 in data set [1] (240 h, UV-, no irradiation) is 8.52; in [2] (240 h, UV-, no irradiation), 7.82; in data set [3], […]; in the data set with PARP it was […]. In [4], the “UV stability (HPLC peak area)” value is reported as “no significant loss”.
For the compound `Cn1ncnc1[C@H]1c2nn(Cc3cc4c(cc3[N+](=O)[O-])OCO4)c(=O)c3cc(F)cc(c23)N[C@@H]1c1ccc(F)cc1` [compound 3, (8S,9R)-5-Fluoro-8-(4-fluorophenyl)-9-(1-methyl-1H-1,2,4-triazol-5-yl)-2-((6-nitrobenzo[d][1,3]dioxol-5-yl)methyl)-2,7,8,9-tetrahydro-3H pyrido[4,3,2-de]phthalazin-3-one], the pIC50 in [1] (240 h, UV-, no irradiation) was 6.06; in [1] (UV+, 365 nm irradiation of cells 3 min after 1 h incubation), 7.04; against PARP-1 enzyme, 5.72; in [2] (240 h, UV-, no irradiation), 5.73; in data set [2] (UV+, 365 nm irradiation of cells 1 min after 1 h incubation), 6.24; in data set [3], 6.48. For the same compound, in data set [1] (UV 3 min vs no UV), the “inhibitory activity on Capan-1 cells after UV irradiation versus non-irradiated group” value is recorded as “nine times higher”. Further, the “reduction of PARP-1 inhibitory activity versus Talazoparib” value at PARP-1 enzyme (ratio of IC50 values, compound 3 vs Talazoparib) came to 380 times. In addition, the “stability in PBS (HPLC peak area)” value in data set [5] is given as “did not show significant changes”. For the same compound, the “inhibitory activity on MX-1 cells after UV irradiation versus non-irradiated group” value in data set [2] (UV 1 min vs no UV) was “approximately three times higher”. The “decrease of PARylation inhibitory activity versus Talazoparib” value in data set [3] (ratio of IC50 values) is listed as at least 658 times. In addition, the “irradiation time to complete release (photolysis)” value in data set [6] stood at 3 min. In addition, the “release after UV irradiation under cytotoxicity experimental conditions” value in [7] is reported as “not released completely”.
`C[C@H](NC(=O)OC(C)(C)C)C(=O)OCc1cc2c(cc1[N+](=O)[O-])OCO2` [compound 6, (6-Nitrobenzo[d][1,3]dioxol-5-yl)methyl (tert-butoxycarbonyl)-L-alaninate]: the pIC50 in [1] (240 h, UV-, no irradiation) was below 5.00; in data set [1] (setting [8]) it was below 5.00; in [2] (240 h, UV-, no irradiation), below 5.00; in data set [2] (setting [8]), below 5.00. For the same compound, in [6], the “irradiation time to complete release (photolysis)” value is reported as at most 20 min.
